This passage reports Reduction results from ChEMBL document CHEMBL1122197, “Pyridoquinoxaline N-oxides. 1. A new class of antitrichomonal agents” (1982).

Assay [1] deals with Tritrichomonas foetus. The assay can be described thus: Tested for anti-trichomonal activity in Tritrichomonas foetus, expressed as % reduction in the severity of peritoneal cavity infection at the dose of 12.50 mg/kg. The following applies: dose 12.5 mg/kg.
The test system of assay [2] is Tritrichomonas foetus. As to the kind of experiment: Tested for anti-trichomonal activity in Tritrichomonas foetus, expressed as % reduction in the severity of peritoneal cavity infection at the dose of 25 mg/kg.
In assay [3] the test system is Tritrichomonas foetus. As to the kind of experiment: Tested for anti-trichomonal activity in Tritrichomonas foetus, expressed as % reduction in the severity of peritoneal cavity infection at the dose of 50 mg/kg.

As to `N=c1ccc2c(nc3ccccc3[n+]2[O-])n1C1CCCCC1`, the Reduction amounted to 21% in the assay on Tritrichomonas foetus [1] and 96% in the assay on Tritrichomonas foetus [2].
In turn, `N=c1ccc2c(nc3ccccc3[n+]2[O-])n1Cc1ccccc1` had a Reduction with Tritrichomonas foetus [2] of 19%.
Still for that read-out and setting: in the case of `COC(Cn1c(=N)ccc2c1nc1ccccc1[n+]2[O-])OC` it was 25%.
`CCOCCn1c(=N)ccc2c1nc1ccccc1[n+]2[O-]` came in with a Reduction in the assay with Tritrichomonas foetus [3] of 9%.
With `CCn1c(=N)ccc2nc3ccccc3nc21`, the Reduction is recorded as 0% in the assay with Tritrichomonas foetus [1] and 89% in the assay with Tritrichomonas foetus [2].
Turning to `Cn1c(=N)ccc2c1nc1ccccc1[n+]2[O-]`, the Reduction worked out at 100% in the assay with Tritrichomonas foetus [1], 98% in the assay with Tritrichomonas foetus [3] and 97% in the assay with Tritrichomonas foetus [2].
`C=CCn1c(=N)ccc2c1nc1ccccc1[n+]2[O-]` displayed a Reduction with Tritrichomonas foetus [2] of 38%.
The same measure, in the same setting: in the case of `Cn1c(=O)ccc2nc3ccccc3nc21` it was 18%; in that of `Cn1c(=O)ccc2c1nc1ccccc1[n+]2[O-]`, 23%.
Consider `N=c1ccc2c(nc3ccccc3[n+]2[O-])n1Cc1ccncc1`, for which the Reduction in the assay on Tritrichomonas foetus [1] came out at 18%; in the assay with Tritrichomonas foetus [3], 95%; in the assay on Tritrichomonas foetus [2], 81%.
On to `CCn1c(=N)ccc2c1nc1ccccc1[n+]2[O-]`, for which the Reduction in the assay on Tritrichomonas foetus [1] amounted to 0%; in the assay on Tritrichomonas foetus [2], 100%.
As to `Cn1c(=N)ccc2nc3ccccc3nc21`, the Reduction in the assay on Tritrichomonas foetus [1] is reported as 34%; in the assay on Tritrichomonas foetus [3], 98%; with Tritrichomonas foetus [2] it was 75%.
With `COCCn1c(=N)ccc2c1nc1ccccc1[n+]2[O-]`, the figures for the Reduction in the assay on Tritrichomonas foetus [1] and in the assay with Tritrichomonas foetus [2] were 0% and 96%, respectively.
In the assay with Tritrichomonas foetus [3], `N=c1ccc2nc3ccccc3nc2n1Cc1ccncc1` gave a Reduction of 15%.
On the same count and under the same terms, in the case of `CCCn1c(=N)ccc2c1nc1ccccc1[n+]2[O-]` it was 0%.
Compound `N=c1ccc2c(nc3ccccc3[n+]2[O-])n1CCO` gave a Reduction in the assay with Tritrichomonas foetus [2] of 57%.
